Measurements published in ChEMBL document CHEMBL3885881, “DrugMatrix”.

Species on record: Rattus norvegicus
Test: DrugMatrix - Regimen: Daily Repeat
Assay type: toxicity, organism-based, Sprague-Dawley
Design: regimen Daily Repeat, gender Male, age 6-8 weeks
Details: in vivo, po, route oral GAVAGE, […]; for ABSOLUTE BASOPHIL / ABSOLUTE EOSINOPHIL / ABSOLUTE LYMPHOCYTE / ABSOLUTE MONOCYTE / ABSOLUTE SEGMENTED NEUTROPHIL / BASOPHIL / EOSINOPHIL / ERYTHROCYTE COUNT / HEMATOCRIT / HEMOGLOBIN / LEUKOCYTE COUNT / LYMPHOCYTE / MEAN CORPUSCULAR HEMOGLOBIN / MEAN CORPUSCULAR HEMOGLOBIN CONCENTRATION / MEAN CORPUSCULAR VOLUME / MONOCYTE / NEUTROPHIL / NUCLEATED RED BLOOD CELLS / PLATELET COUNT: tissue Blood; for ALANINE AMINOTRANSFERASE / ALBUMIN / ALKALINE PHOSPHATASE / ASPARTATE AMINOTRANSFERASE / BLOOD UREA NITROGEN / CARBON DIOXIDE / CHLORIDE / CHOLESTEROL / CREATINE PHOSPHOKINASE / CREATININE / GLUCOSE / LACTATE DEHYDROGENASE / LIPASE / PHOSPHORUS / POTASSIUM / SODIUM / TOTAL BILIRUBIN / TOTAL PROTEIN / URIC ACID: tissue Plasma
[1] = 0 mg/kg, 72 h, dose level Control, time 3 day
[2] = 0 mg/kg, 120 h, dose level Control, time 5 day
[3] = 10 mg/kg, 72 h, dose level Low, time 3 day
[4] = 10 mg/kg, 120 h, dose level Low, time 5 day

**Q.** What does the source list for `C#C[C@]1(O)CC[C@H]2[C@@H]3CCc4cc(O)ccc4[C@H]3CC[C@@]21C` [ETHINYL ESTRADIOL]?
**A.** ABSOLUTE BASOPHIL [1]: 0 CELLS/uL; ABSOLUTE EOSINOPHIL [1]: 104.17 CELLS/uL; ABSOLUTE LYMPHOCYTE [1]: 14547 CELLS/uL; ABSOLUTE MONOCYTE [1]: 292 CELLS/uL; ABSOLUTE SEGMENTED NEUTROPHIL [1]: 1640.17 CELLS/uL; BASOPHIL [1]: 0%; EOSINOPHIL [1]: 0.67%; ERYTHROCYTE COUNT [1]: 5.35 x10E6/uL; HEMATOCRIT [1]: 33.67%; HEMOGLOBIN [1]: 13.38 G/DL; LEUKOCYTE COUNT [1]: 16.58 x10E3/uL; LYMPHOCYTE [1]: 87.5%; MEAN CORPUSCULAR HEMOGLOBIN [1]: 25.05 pg; MEAN CORPUSCULAR HEMOGLOBIN CONCENTRATION [1]: 39.78 G/DL; MEAN CORPUSCULAR VOLUME [1]: 62.97 fL; MONOCYTE [1]: 1.83%; NEUTROPHIL [1]: 10%; NUCLEATED RED BLOOD CELLS [1]: 0 /100WBC; PLATELET COUNT [1]: 1274.5 x10E3/uL; ALANINE AMINOTRANSFERASE [1]: 76.83 u/L; ALBUMIN [1]: 3.97 G/DL; ALKALINE PHOSPHATASE [1]: 347 u/L; ASPARTATE AMINOTRANSFERASE [1]: 97.17 u/L; BLOOD UREA NITROGEN [1]: 14.33 mg/dL; CARBON DIOXIDE [1]: 25.5 mmol/L; CHLORIDE [1]: 100.33 MEQ/L; CHOLESTEROL [1]: 68.67 mg/dL; CREATINE PHOSPHOKINASE [1]: 659.17 u/L; CREATININE [1]: 0.32 mg/dL; GLUCOSE [1]: 160.67 mg/dL; LACTATE DEHYDROGENASE [1]: 271.5 u/L; LIPASE [1]: 11.67 u/L; PHOSPHORUS [1]: 10.65 mg/dL; POTASSIUM [1]: 5.95 MEQ/L; SODIUM [1]: 139.65 MEQ/L; TOTAL BILIRUBIN [1]: 0.2 mg/dL; TOTAL PROTEIN [1]: 5.72 G/DL; URIC ACID [1]: 1.37 mg/dL; ABSOLUTE BASOPHIL [2]: 0 CELLS/uL; ABSOLUTE EOSINOPHIL [2]: 331.5 CELLS/uL; ABSOLUTE LYMPHOCYTE [2]: 15021.67 CELLS/uL; ABSOLUTE MONOCYTE [2]: 376.5 CELLS/uL; ABSOLUTE SEGMENTED NEUTROPHIL [2]: 3070.33 CELLS/uL; BASOPHIL [2]: 0%; EOSINOPHIL [2]: 1.83%; ERYTHROCYTE COUNT [2]: 5.24 x10E6/uL; HEMATOCRIT [2]: 33.22%; HEMOGLOBIN [2]: 13.2 G/DL; LEUKOCYTE COUNT [2]: 18.8 x10E3/uL; LYMPHOCYTE [2]: 79.67%; MEAN CORPUSCULAR HEMOGLOBIN [2]: 25.17 pg; MEAN CORPUSCULAR HEMOGLOBIN CONCENTRATION [2]: 39.73 G/DL; MEAN CORPUSCULAR VOLUME [2]: 63.38 fL; MONOCYTE [2]: 2%; NEUTROPHIL [2]: 16.5%; NUCLEATED RED BLOOD CELLS [2]: 0 /100WBC; PLATELET COUNT [2]: 1142.67 x10E3/uL; ALANINE AMINOTRANSFERASE [2]: 52.5 u/L; ALBUMIN [2]: 3.9 G/DL; ALKALINE PHOSPHATASE [2]: 284.5 u/L; ASPARTATE AMINOTRANSFERASE [2]: 81.33 u/L; BLOOD UREA NITROGEN [2]: 16 mg/dL; CARBON DIOXIDE [2]: 25.33 mmol/L; CHLORIDE [2]: 99.5 MEQ/L; CHOLESTEROL [2]: 74.83 mg/dL; CREATINE PHOSPHOKINASE [2]: 448.33 u/L; CREATININE [2]: 0.37 mg/dL; GLUCOSE [2]: 164.17 mg/dL; LACTATE DEHYDROGENASE [2]: 290.67 u/L; LIPASE [2]: 6.83 u/L; PHOSPHORUS [2]: 11.5 mg/dL; POTASSIUM [2]: 6.28 MEQ/L; SODIUM [2]: 139.5 MEQ/L; TOTAL BILIRUBIN [2]: 0.13 mg/dL; TOTAL PROTEIN [2]: 5.55 G/DL; URIC ACID [2]: 1.12 mg/dL; ABSOLUTE BASOPHIL [3]: 0 CELLS/uL; ABSOLUTE EOSINOPHIL [3]: 112 CELLS/uL; ABSOLUTE LYMPHOCYTE [3]: 12658 CELLS/uL; ABSOLUTE MONOCYTE [3]: 346 CELLS/uL; ABSOLUTE SEGMENTED NEUTROPHIL [3]: 1350.67 CELLS/uL; BASOPHIL [3]: 0%; EOSINOPHIL [3]: 1%; ERYTHROCYTE COUNT [3]: 5.67 x10E6/uL; HEMATOCRIT [3]: 36.5%; HEMOGLOBIN [3]: 13.83 G/DL; LEUKOCYTE COUNT [3]: 14.47 x10E3/uL; LYMPHOCYTE [3]: 87.33%; MEAN CORPUSCULAR HEMOGLOBIN [3]: 24.43 pg; MEAN CORPUSCULAR HEMOGLOBIN CONCENTRATION [3]: 37.9 G/DL; MEAN CORPUSCULAR VOLUME [3]: 64.47 fL; MONOCYTE [3]: 2.33%; NEUTROPHIL [3]: 9.33%; NUCLEATED RED BLOOD CELLS [3]: 0 /100WBC; PLATELET COUNT [3]: 1151 x10E3/uL; ALANINE AMINOTRANSFERASE [3]: 33.67 u/L; ALBUMIN [3]: 3.67 G/DL; ALKALINE PHOSPHATASE [3]: 715.33 u/L; ASPARTATE AMINOTRANSFERASE [3]: 58.67 u/L; BLOOD UREA NITROGEN [3]: 12 mg/dL; CARBON DIOXIDE [3]: 22 mmol/L; CHLORIDE [3]: 103.33 MEQ/L; CHOLESTEROL [3]: 20 mg/dL; CREATINE PHOSPHOKINASE [3]: 384.33 u/L; CREATININE [3]: 0.1 mg/dL; GLUCOSE [3]: 148.33 mg/dL; LACTATE DEHYDROGENASE [3]: 168.67 u/L; LIPASE [3]: 8 u/L; PHOSPHORUS [3]: 10.77 mg/dL; POTASSIUM [3]: 6.1 MEQ/L; SODIUM [3]: 141.07 MEQ/L; TOTAL BILIRUBIN [3]: 0.13 mg/dL; TOTAL PROTEIN [3]: 5.3 G/DL; URIC ACID [3]: 1.13 mg/dL; ABSOLUTE BASOPHIL [4]: 0 CELLS/uL; ABSOLUTE EOSINOPHIL [4]: 138 CELLS/uL; ABSOLUTE LYMPHOCYTE [4]: 9196.33 CELLS/uL; ABSOLUTE MONOCYTE [4]: 408.33 CELLS/uL; ABSOLUTE SEGMENTED NEUTROPHIL [4]: 1390.67 CELLS/uL; BASOPHIL [4]: 0%; EOSINOPHIL [4]: 1%; ERYTHROCYTE COUNT [4]: 5.71 x10E6/uL; HEMATOCRIT [4]: 34.9%; HEMOGLOBIN [4]: 13.2 G/DL; LEUKOCYTE COUNT [4]: 11.13 x10E3/uL; LYMPHOCYTE [4]: 83%; MEAN CORPUSCULAR HEMOGLOBIN [4]: 23.1 pg; MEAN CORPUSCULAR HEMOGLOBIN CONCENTRATION [4]: 37.83 G/DL; MEAN CORPUSCULAR VOLUME [4]: 61.17 fL; MONOCYTE [4]: 3.67%; NEUTROPHIL [4]: 12.33%; NUCLEATED RED BLOOD CELLS [4]: 0 /100WBC; PLATELET COUNT [4]: 1450 x10E3/uL; ALANINE AMINOTRANSFERASE [4]: 54.67 u/L; ALBUMIN [4]: 3.87 G/DL; ALKALINE PHOSPHATASE [4]: 644.33 u/L; ASPARTATE AMINOTRANSFERASE [4]: 72.67 u/L; BLOOD UREA NITROGEN [4]: 8.33 mg/dL; CARBON DIOXIDE [4]: 22.33 mmol/L; CHLORIDE [4]: 101.33 MEQ/L; CHOLESTEROL [4]: 17.33 mg/dL; CREATINE PHOSPHOKINASE [4]: 692.67 u/L; CREATININE [4]: 0.12 mg/dL; GLUCOSE [4]: 153.33 mg/dL; LACTATE DEHYDROGENASE [4]: 158 u/L; LIPASE [4]: 4.33 u/L; PHOSPHORUS [4]: 10.27 mg/dL; POTASSIUM [4]: 5.78 MEQ/L; SODIUM [4]: 139.87 MEQ/L; TOTAL BILIRUBIN [4]: 0.23 mg/dL; TOTAL PROTEIN [4]: 6.07 G/DL; URIC ACID [4]: 1.63 mg/dL
